Experiments:
cytochrome P450 [1] = assay: In vivo activity (cytochrome P450 inhibition)
cytochrome P450 [2] = assay: In vitro inhibition of cytochrome P450 activity; format: biochemical; conditions: for in vitro inhibition of cytochrome P450 activity: compared with 10-undecinyl acid
HepG2 liver cancer cells = assay: Migration test of HepG2 cells in collagen matrix; format: cell-based; conditions: for Mean migratory activity: control 15%; for drop of migratory activity of the cells: control migratory activity 15%, 900 minutes
Protocol: Migration test conditions: HepG2 liver cancer cells were embedded in a collagen matrix. Thirty individual cells were inspected continuously by photographic means for 900 minutes. The average percentage of migrating cells was determined. Result 2: […]

[3] = Acute toxicity in male CD rats; format: in vivo; conditions: male, CD, rat, in vivo, po
Protocol: (§1) The acute toxicity of 12-imidazolyl-1-dodecanol (substance 1) and 12-(1)-imidazolyl-dodecane (substance 2) was tested in male CD rats. For 12-imidazolyl-1-dodecanol the result was an LD50 (14 days) of 1,000 mg/kg, b.w., p.o.; and for 12-(1)-imidazolyl-dodecane an LD50 (14 days) of 1,000 mg/kg b.w., p.o.

male CD rats = assay: Acute toxicity in male CD rats; format: in vivo
Protocol: as §1

[4] = test system: SW620 (large intestine cells); assay: Antineoplastic effect: cancer cell proliferation, cell count after four day incubation; format: cell-based; conditions: read-out: half maximum inhibitory concentration IC50 (cancer cell proliferation)
Protocol: (§2) To this end, four cancer cell lines were seeded into “24 well plates” and allowed to grow for 24 hours. Then a wide array of the concentrations of the test substance 12-imidazolyl-1-dodecanol, dissolved in DMSO, was added to the cell suspensions. The DMSO concentration in the cell medium was 0.01%. […] In all cases a strong inhibition of cancer cell proliferation was determined.
(§3) The following half maximum inhibitory concentrations—IC50 values—of 12-imidazolyl-1-dodecanol were determined: […]

HepG2 (liver cells) = assay: as above; format: cell-based; conditions: read-out: half maximum inhibitory concentration IC50 (cancer cell proliferation)
Protocol: as §2, §3

Panc-1 (pancreas cells) [5] = assay: as above; format: cell-based; conditions: Panc-1, four day incubation, read-out: half maximum inhibitory concentration IC50 (cancer cell proliferation)
Protocol: as §2, §3

PC-3 (prostate cells) = assay: as above; format: cell-based; conditions: PC-3, four day incubation, read-out: half maximum inhibitory concentration IC50 (cancer cell proliferation)
Protocol: as §2, §3

Panc-1 (pancreas cells) [6] = assay: LDH cytotoxicity test; format: cell-based; conditions: Panc-1, LDH cytotoxicity test
Protocol: (§4) The half maximum cytotoxicity of 12-imidazolyl-1-dodecanol was determined with the LDH cytotoxicity test.

[7] = test system: MRC-5 (lung fibroblast cells); assay: LDH cytotoxicity test; format: cell-based; conditions: MRC-5, LDH cytotoxicity test
Protocol: as §4

[8] = male, CD, rat, in vivo, po, 14 days

## C#CCCCCCCCCCOS(=O)(=O)O [10-undecinyl-sulfate]
Cytochrome P450 [1]
  in vivo activity compared with 10-undecinyl acid: far superior
Cytochrome P450 [2]
  in vitro inhibition of cytochrome P450 activity: comparably high inhibition

## C#CCCCCCCCCC(C)(C)C(=O)O [2,2-dimethyl-11-dodecinyl acid]
Cytochrome P450 [1]
  in vivo activity compared with 10-undecinyl acid: far superior
Cytochrome P450 [2]
  in vitro inhibition of cytochrome P450 activity: comparably high inhibition

## insulin: insulin added to HepG2 cells to stimulate migratory activity [reference compound]
HepG2 liver cancer cells; insulin (100 ng/ml) alone
  Mean migratory activity: 38%
HepG2 liver cancer cells; insulin versus control
  increase in the migratory activity (times): 2.5 times

## CCCCCCCCCCCCn1ccnc1 [12-(1)-imidazolyl-dodecane]
[3]
  LD50 at 14 days: 1000 mg/kg
Male CD rats; [8]
  First intolerance reaction: substance 2: 500 mg/kg b.w., p.o.
  No effect at the dose rate: substance 2: 250 mg/kg b.w., p.o.

## C#CCCCCCCCCCCCCCCCC(=O)O [17-octadecinyl-1-acid]
Cytochrome P450 [2]
  effectiveness in vitro: especially effective in vitro

## 12-imidazolyl-1-dodecanol
HepG2 liver cancer cells; 1 μM in matrix medium
  drop of migratory activity of the cells: 50%
HepG2 liver cancer cells; 10 μM in matrix medium
  drop of migratory activity of the cells: 75%
HepG2 liver cancer cells; insulin and 12-imidazolyl-1-dodecanol (10 μl)
  Mean migratory activity: 15%
HepG2 liver cancer cells; with insulin, after 450 min. observation time
  effect on insulin-induced increase in migratory activity: blocks this increase completely
HepG2 liver cancer cells; with insulin, after 900 minutes
  mean migratory activity below that of the control group: 13%
Male CD rats; male CD rats, p.o.
  First intolerance reaction: substance 1: 1,000 mg/kg b.w., p.o.
  No effect at the dose rate: substance 1: 500 mg/kg b.w., p.o.
Male CD rats; male CD rats, p.o., 14 days
  LD50 (14 days): 1,000 mg/kg, b.w.
[4]
  IC50: 100 nM
HepG2 (liver cells)
  IC50: 50 nM
Panc-1 (pancreas cells) [5]
  IC50: 50 nM
PC-3 (prostate cells)
  IC50: 50 nM
Panc-1 (pancreas cells) [6]
  half maximum cytotoxicity: 500 µM
  half maximum cytotoxicity (as restated in text): 500 μm
[7]
  half maximum cytotoxicity: 500 µM
